Laboratory results reported in article PMC11480954, “Molecular determinants of resurgent sodium currents mediated by Navβ4 peptide and A-type FHFs” (Frontiers in Molecular Neuroscience, 2024).
Values joined by “and” are separate entries in the source; they are usually repeats but may differ in a detail not shown here. Equal entries are not always repeated. Where two headings read alike, the source gives them in different places. No end group written: not given here.

Columns and labels:
Nav1.7 N395K = conditions: ref Sheets et al., 2007; cited from earlier work
Text: The receptor site of local anesthetics is formed by multiple residues within DIS6, DIIIS6 and DIVS6. […] Several studies have implicated F1764 and Y1771 in Nav1.2 (corresponding to F1737 and Y1744 in Nav1.7) as playing a major effect on local anesthetics-induced inhibition of VGSCs ([Ragsdale et al., 1996]). We recently reported that mutation of an asp ...

[1] = target: T1, human Nav1.7 R1599P (rpNav1.7) (Homo sapiens, UniProt Q15858, R1610P); test: Resurgent current (INaR), whole-cell patch clamp, rpNav1.7; type: cell-based
T1 construct: expressed in transfected cells; host or cells: HEK293 cells, transient transfection with pcDNA3.1 construct
T1 sequence (Q15858 1-1977 isoform Q15858-3 R1599P): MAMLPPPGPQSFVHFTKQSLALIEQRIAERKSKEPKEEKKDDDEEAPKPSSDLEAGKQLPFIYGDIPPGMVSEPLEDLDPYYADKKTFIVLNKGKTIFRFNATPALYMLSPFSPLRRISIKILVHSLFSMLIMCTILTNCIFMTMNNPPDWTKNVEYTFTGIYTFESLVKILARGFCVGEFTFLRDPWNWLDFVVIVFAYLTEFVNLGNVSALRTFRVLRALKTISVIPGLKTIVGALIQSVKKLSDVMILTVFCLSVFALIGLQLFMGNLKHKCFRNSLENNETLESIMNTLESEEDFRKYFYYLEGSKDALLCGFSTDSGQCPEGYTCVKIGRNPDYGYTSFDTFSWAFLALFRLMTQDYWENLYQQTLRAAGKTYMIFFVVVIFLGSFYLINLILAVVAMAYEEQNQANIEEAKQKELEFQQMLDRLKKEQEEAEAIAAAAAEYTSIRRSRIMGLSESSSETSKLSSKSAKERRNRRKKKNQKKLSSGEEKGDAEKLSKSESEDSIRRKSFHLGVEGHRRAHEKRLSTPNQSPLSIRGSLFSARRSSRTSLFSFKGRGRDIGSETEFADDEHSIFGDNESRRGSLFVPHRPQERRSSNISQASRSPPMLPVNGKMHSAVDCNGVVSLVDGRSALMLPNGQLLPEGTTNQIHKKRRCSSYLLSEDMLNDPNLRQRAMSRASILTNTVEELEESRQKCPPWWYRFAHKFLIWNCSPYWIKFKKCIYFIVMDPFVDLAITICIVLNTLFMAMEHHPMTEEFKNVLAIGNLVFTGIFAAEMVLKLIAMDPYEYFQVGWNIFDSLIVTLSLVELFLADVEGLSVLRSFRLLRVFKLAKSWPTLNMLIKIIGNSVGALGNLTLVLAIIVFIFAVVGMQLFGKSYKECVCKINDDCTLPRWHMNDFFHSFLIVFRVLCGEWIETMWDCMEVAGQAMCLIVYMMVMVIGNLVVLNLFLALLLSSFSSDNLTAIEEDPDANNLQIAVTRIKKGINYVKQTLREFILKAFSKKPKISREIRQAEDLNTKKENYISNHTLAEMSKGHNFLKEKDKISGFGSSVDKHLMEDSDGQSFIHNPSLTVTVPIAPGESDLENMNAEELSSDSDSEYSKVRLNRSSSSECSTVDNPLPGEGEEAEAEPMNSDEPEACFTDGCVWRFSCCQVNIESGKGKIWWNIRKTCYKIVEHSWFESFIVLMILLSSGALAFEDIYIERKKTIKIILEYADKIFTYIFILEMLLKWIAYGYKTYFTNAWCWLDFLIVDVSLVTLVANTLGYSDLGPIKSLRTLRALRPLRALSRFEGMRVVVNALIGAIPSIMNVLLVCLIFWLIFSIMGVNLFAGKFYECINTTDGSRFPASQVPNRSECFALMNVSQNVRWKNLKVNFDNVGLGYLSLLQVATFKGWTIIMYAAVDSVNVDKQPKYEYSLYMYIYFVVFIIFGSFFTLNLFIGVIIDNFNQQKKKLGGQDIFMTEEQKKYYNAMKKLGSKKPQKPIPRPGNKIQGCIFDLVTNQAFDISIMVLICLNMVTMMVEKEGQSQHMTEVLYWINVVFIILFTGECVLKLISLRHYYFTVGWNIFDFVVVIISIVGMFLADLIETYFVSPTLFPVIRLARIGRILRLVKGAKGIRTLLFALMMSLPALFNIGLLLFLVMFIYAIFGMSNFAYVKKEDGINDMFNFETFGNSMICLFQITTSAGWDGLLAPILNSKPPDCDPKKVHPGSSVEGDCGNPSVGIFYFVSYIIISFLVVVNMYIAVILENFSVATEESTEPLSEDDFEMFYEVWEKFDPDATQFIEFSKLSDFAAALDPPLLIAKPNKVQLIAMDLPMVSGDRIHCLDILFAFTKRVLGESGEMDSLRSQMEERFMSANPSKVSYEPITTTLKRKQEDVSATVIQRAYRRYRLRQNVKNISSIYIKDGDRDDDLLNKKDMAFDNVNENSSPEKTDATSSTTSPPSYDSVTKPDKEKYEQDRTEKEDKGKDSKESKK
T1 sequence (Q07699 19-218 partner): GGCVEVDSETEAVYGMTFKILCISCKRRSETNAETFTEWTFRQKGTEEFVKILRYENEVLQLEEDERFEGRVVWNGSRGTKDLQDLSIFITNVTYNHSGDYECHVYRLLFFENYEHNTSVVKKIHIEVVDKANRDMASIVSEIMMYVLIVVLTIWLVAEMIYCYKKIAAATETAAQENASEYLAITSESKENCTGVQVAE
T1 sequence (O60939 30-215 partner): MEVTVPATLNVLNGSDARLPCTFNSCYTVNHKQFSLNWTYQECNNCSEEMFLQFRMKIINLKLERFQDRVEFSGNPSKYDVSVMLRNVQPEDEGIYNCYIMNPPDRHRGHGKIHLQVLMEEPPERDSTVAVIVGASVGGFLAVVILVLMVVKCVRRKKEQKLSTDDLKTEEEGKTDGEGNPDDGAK
Procedure: (§1) HEK293 cells and ND7/23 cells were grown under standard tissue culture conditions (5% CO2 and 37°C) in DMEM supplemented with 10% FBS, 1% penicillin and 1% streptomycin. Using Invitrogen Lipofectamine 2000, human Nav1.7 R1599P (rpNav1.7) and the mutant constructs were transiently co-transfected with Navβ1 and Navβ2 into HEK293 cells. The constructs human Nav1.8 and mutants were transiently co-transfected with FHF2B or FHF4A into ND7/23 cells. The lipofectamine-DNA mixture was added to the cell culture medium and left for 3 h after which the cells were washed with fresh medium. Cells with green fluorescent protein fluorescence were selected for whole-cell patch-clamp recordings 36–72 h after transfection.
(§2) Whole-cell voltage-clamp recordings were performed at room temperature (~21°C) using an EPC-10 amplifier and the Pulse program (HEKA Electronics). Fire-polished electrodes (0.7–1.0 MΩ) were fabricated from 1.7 mm capillary glass using a P-97 puller (Sutter Instruments), and the tips were coated with sticky wax (KerrLab) to reduce electrode capacitance and enable increased series resistance compensation. The pipette solution contained (in mM) 140 CsF, 1.1 EGTA, 10 NaCl, and 10 HEPES, pH 7.3. The bathing solution was (in mM) 130 mM NaCl, 30 mM TEA chloride, 1 mM MgCl2, 3 mM KCl, 1 mM CaCl2, 10 mM HEPES, and 10 mM d-glucose, pH 7.3 (adjusted with NaOH). […] The offset potential was zeroed before contacting the cell. After establishing the whole-cell recording configuration, the resting potential was held at −120 or −100 mV for 5 min to allow adequate equilibration between the micropipette solution and the cell interior. […]
(§3) INaR: INaR was elicited by repolarizing voltage steps from +20 to −80 mV for 100 ms (or 200 ms) in −5 mV increments, following a 20-ms depolarizing potential of +30 mV. […] The relative INaR in Nav1.7 and Nav1.8 was calculated by normalizing to the peak transient current elicited at −10 or 0 mV.

human Nav1.7 = test: Steady-state activation and inactivation, WT Nav1.7; type: cell-based; conditions: HEK293, 100 μM intracellular, mean ± S.E., scramble n = 6, Navβ4 peptide n = 8
Procedure: as §1
Whole-cell voltage-clamp recordings were performed at room temperature (~21°C) using an EPC-10 amplifier and the Pulse program (HEKA Electronics). […]
(§4) Families of sodium currents were induced by 50-ms depolarizing steps to various potentials ranging from −120 (or −100) to +40 mV in 5-mV increments. The conductance was calculated using the equation G(Nav) = I/(V - Vrev) in which I, V, and Vrev represent inward current value, membrane potential, and reversal potential, respectively. […]

[2] = target: T1, human Nav1.7 R1599P (rpNav1.7); test: Gating properties (steady-state activation, inactivation, INaP), rpNav1.7; type: cell-based
Procedure: as §1, §2, §4

[3] = target: T1, human Nav1.7 R1599P (rpNav1.7); test: Long-term inactivation of rpNav1.7; type: cell-based; conditions: rpNav1.7, HEK293; 1 mM; six 16-ms pulses of −10 mV from −100 mV, 40-ms interpulse; scramble n = 6, FHF4A peptide n = 5; p < 0.0001
human Nav1.8 [4] = test: INaR, Nav1.8 co-expressed with FHF2B; type: cell-based; conditions: Nav1.8 + FHF2B, ND7/23, 1 mM
Procedure: as §1
(§5) Whole-cell voltage-clamp recordings were performed at room temperature (~21°C) using an EPC-10 amplifier and the Pulse program (HEKA Electronics). Fire-polished electrodes (0.7–1.0 MΩ) were fabricated from 1.7 mm capillary glass using a P-97 puller (Sutter Instruments), and the tips were coated with sticky wax (KerrLab) to reduce electrode capacitance and enable increased series resistance compensation. The pipette solution contained (in mM) 140 CsF, 1.1 EGTA, 10 NaCl, and 10 HEPES, pH 7.3. The bathing solution was (in mM) 130 mM NaCl, 30 mM TEA chloride, 1 mM MgCl2, 3 mM KCl, 1 mM CaCl2, 10 mM HEPES, and 10 mM d-glucose, pH 7.3 (adjusted with NaOH). […] The offset potential was zeroed before contacting the cell. After establishing the whole-cell recording configuration, the resting potential was held at −120 or −100 mV for 5 min to allow adequate equilibration between the micropipette solution and the cell interior. Linear leak subtraction, based on resistance estimates from four to five hyperpolarizing pulses applied before the depolarizing test potential, was used for all voltage clamp recordings. Membrane currents were usually filtered at 5 kHz and sampled at 20 kHz. […] Voltage errors were minimized using 80–95% series resistance compensation, and the capacitance artifact was canceled using the computer-controlled circuitry of the patch clamp amplifier. […] The concentration-dependent curves were fitted to a hill equation: Y = Bottom + (Top-Bottom)/(1 + 10^((LogEC50-X)*HillSlope)).
as §3

human Nav1.8 [5] = test: Gating properties (steady-state activation, inactivation, INaP), Nav1.8; type: cell-based; conditions: Nav1.8 + FHF2B, ND7/23; 1 mM; held at −100 mV; scramble n = 8, FHF4A peptide n = 10; p > 0.05
Procedure: as §1, §5
Families of sodium currents were induced by 50-ms depolarizing steps to various potentials ranging from −120 (or −100) to +40 mV in 5-mV increments. The conductance was calculated using the equation G(Nav) = I/(V - Vrev) in which I, V, and Vrev represent inward current value, membrane potential, and reversal potential, respectively.
Voltage dependence of steady-state inactivation was estimated using a standard double pulse protocol in which sodium currents were induced by a 50-ms depolarizing potential of 0 mV following a 500-ms prepulse at potentials that ranged from −150 to +10 mV with a 10-mV increment. Currents were plotted as a fraction of the maximum peak current. To obtain the midpoint voltages (V1/2) and slope factor (k), the curves of both steady-state activation and inactivation were fitted to a Boltzmann function.

Purkinje neurons = conditions: ref White et al., 2019, cited from earlier work
Text: Next, we investigated if FHF4A, another INaR mediator reported recently ([White et al., 2019]; [Xiao et al., 2022]), shares the receptor site in VGSCs with Navβ4 peptide.

VGSC α-subunits = conditions: heterologous co-expression with VGSC α-subunits; no reference given; cited from earlier work
Text: FHF4A could still induce INaR from the F1710K channel (Figure 10A), but the average INaR amplitude at −20 mV is only 2.0% ± 0.2% of the peak transient current, which is less than one-half of the value from WT Nav1.8 (p < 0.0001). ... || The role of Navβ4 in INaR generation remains controversial. […] [Bant and Raman (2010)] reported that siRNA induced knock-down of Navβ4 reduced INaR generation in cultured cerebellar granular neurons by roughly 60%. […] Furthermore, Scn4b knock-out in mice has produced variable effects on INaR. In striatal neurons, Scn4b kno ...

For `CCN(CC)CC(=O)Nc1c(C)cccc1C` [lidocaine], the “effect of N395K on lidocaine inhibition of Nav1.7” value (Nav1.7 N395K) is given as “attenuates the inhibitory effects of lidocaine on Nav1.7”.

In the case of “KAREAQRASRAIEQLRSAKI [scrambled peptide, scrambled control peptide]”, the “INaR elicited with scrambled peptide” value ([1]; Nav1.7 and rpNav1.7 (Figures 1A,B), HEK293, 100 μM intracellular) is reported as “no INaR was elicited”, the “V1/2(activation), WT Nav1.7” value (human Nav1.7; p < 0.01) is reported as −29.3 ± 1.6 mV and the “V1/2(inactivation), WT Nav1.7” value (human Nav1.7; p < 0.05) is reported as −79.7 ± 1.7 mV. The “Inactivation (V1/2), rpNav1.7” value ([2]; HEK293, 100 μM intracellular, mean ± S.E., scramble n = 5, Navβ4 peptide n = 9, p < 0.05) was −75.0 ± 1.5 mV, the “Activation (V1/2), rpNav1.7” value ([2]; HEK293, 100 μM intracellular, mean ± S.E., scramble n = 6, Navβ4 peptide n = 9, p < 0.01) was −27.0 ± 1.9 mV and the “fraction of the current elicited at the 6th pulse” value [3] was 0.87 ± 0.08. For the same molecule, the “INaR with scrambled peptide, Nav1.8” value (human Nav1.8 [4]) was “failed to produce INaR”, the “V1/2 (activation), Nav1.8, Figure 6” value (human Nav1.8 [5]) was −10.0 ± 2.4 mV and the “V1/2 (inactivation), Nav1.8, Figure 6” value (human Nav1.8 [5]) was −44.5 ± 2.1 mV.

With KKLITFILKKTREK [Navβ4 peptide] the “average INaR amplitude elicited at −30 mV” value ([1]; rpNav1.7 + Navβ1 + Navβ2, HEK293, 100 μM peptide intracellular, measured after 3.0 ms into repolarization, ~21°C, mean ± S.E., n = 14) was 15.7% ± 1.1%, the EC50 ([1]; rpNav1.7, HEK293, Hill equation, peptide in intracellular solution (10 μM – 1 mM), each data point from 3 to 14 cells, read-out: EC50 for INaR generation) was 61.8 ± 1.3 µM and the “INaP, rpNav1.7” value ([2]; end of 50-ms pulse of −10 mV, normalized to peak transient current, 100 μM Navβ4 peptide, n = 9) was 7.1% ± 3.0% and 7.1 ± 3.0 (9) %.

In the case of “peptide derived from the sequence FHF4A K50 – R63: a peptide derived from the sequence FHF4A K50 – R63 (KVRIFGLKKRRLRR; FHF4A; UniProt Q92915 50-63, looked up, fragment)”, the “INaR in Purkinje neurons” value (Purkinje neurons) is given as “INaR was also reconstituted in Purkinje neurons” and the “INaR in Purkinje neurons” value (Purkinje neurons; listed as short peptide derived from this segment) is given as “induce robust Nav1.6 INaR in Purkinje neurons”.

In the case of “substitution of the 7^th residue leucine with serine: FHF4A K50 – R63 peptide with substitution of the 7th residue leucine with serine (KVRIFGSKKRRLRR; FHF4A peptide K50-R63; UniProt Q92915 50-63, looked up, variant L56S)”, the “INaR in Purkinje neurons” value (Purkinje neurons) is listed as “no longer induce INaR”.

B1: full-length Navβ4: full-length Navβ4 sodium channel auxiliary subunit (protein, UniProt Q8IWT1 1-228, looked up)
chain: MPGAGDGGKAPARWLGTGLLGLFLLPVTLSLEVSVGKATDIYAVNGTEILLPCTFSSCFGFEDLHFRWTYNSSDAFKILIEGTVKNEKSDPKVTLKDDDRITLVGSTKEKMNNISIVLRDLEFSDTGKYTCHVKNPKENNLQHHATIFLQVVDRLEEVDNTVTLIILAVVGGVIGLLILILLIKKLIIFILKKTREKKKECLVSSSGNDNTENGLPGSKAEEKPPSKV
modifications: full-length
notes: full-length Navβ4 sodium channel auxiliary subunit
In the case of B1, the “INaR with full-length Navβ4” value (VGSC α-subunits) is listed as “fails to reconstitute INaR in heterologous systems”.
